Data: PubChem BioAssay AID248 (DTP/NCI, 2004)
Several values for one entry are separate records, joined by “and”; a condition that tells them apart may be missing. Identical values can stand only once. Inconclusive results and toxic doses are left out. No stated cut-off is given here; in the data, active means T/C of 150% or more; inactive means T/C below 125%.

Tested on: L1210 leukemia ip in BDF1 mice, survival T/C
Experiment: NCI In Vivo Anticancer Drug Screen. Data for tumor model L1210 Leukemia (intraperitoneal) in B6D2F1 (BDF1) mice
Conditions: endpoint: mean survival time, higher = longer survival
Method in brief: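 Value reflects the ratio of survival in compound-treated mice to survival in vehicle-treated controls, with both groups carrying the same transplanted tumor.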

[1] = dose: 100.0 mg/kg/injection, schedule: Q01DX009 (ip), vehicle: Klucel (hydroxypropylcellulose) (HPC)
[2] = dose: 200.0 mg/kg/injection, schedule: Q01DX009 (ip), vehicle: Klucel (hydroxypropylcellulose) (HPC)
[3] = dose: 100.0 mg/kg/injection, schedule: Q01DX001 (ip), vehicle: Klucel (hydroxypropylcellulose) (HPC)
[4] = dose: 100.0 mg/kg/injection, schedule: Q04DX003 (ip), vehicle: Klucel (hydroxypropylcellulose) (HPC)
[5] = dose: 200.0 mg/kg/injection, schedule: Q01DX001 (ip), vehicle: Klucel (hydroxypropylcellulose) (HPC)
[6] = dose: 200.0 mg/kg/injection, schedule: Q04DX003 (ip), vehicle: Klucel (hydroxypropylcellulose) (HPC)
[7] = dose: 400.0 mg/kg/injection, schedule: Q01DX001 (ip), vehicle: Klucel (hydroxypropylcellulose) (HPC)
[8] = dose: 400.0 mg/kg/injection, schedule: Q04DX003 (ip), vehicle: Klucel (hydroxypropylcellulose) (HPC)
[9] = dose: 400.0 mg/kg/injection, schedule: Q01DX009 (ip), vehicle: Klucel (hydroxypropylcellulose) (HPC)
[10] = dose: 100.0 mg/kg/injection, schedule: Q04DX002 (ip), vehicle: Klucel (hydroxypropylcellulose) (HPC)
[11] = dose: 200.0 mg/kg/injection, schedule: Q04DX002 (ip), vehicle: Klucel (hydroxypropylcellulose) (HPC)
[12] = dose: 400.0 mg/kg/injection, schedule: Q04DX002 (ip), vehicle: Klucel (hydroxypropylcellulose) (HPC)
[13] = dose: 100.0 mg/kg/injection, schedule: Q01DX001 (ip), vehicle: saline
[14] = dose: 200.0 mg/kg/injection, schedule: Q01DX001 (ip), vehicle: saline
[15] = dose: 25.0 mg/kg/injection, schedule: Q04DX002 (ip), vehicle: saline
[16] = dose: 50.0 mg/kg/injection, schedule: Q04DX002 (ip), vehicle: saline

Measured: T/C

C=CCNc1nnnn1CC=C
inactive: dose: 100.0 mg/kg/injection, schedule: Q04DX003 (ip), vehicle: saline with Tween-80 102 % of control | dose: 200.0 mg/kg/injection, schedule: Q04DX003 (ip), vehicle: saline with Tween-80 102 % of control | dose: 400.0 mg/kg/injection, schedule: Q04DX003 (ip), vehicle: saline with Tween-80 96 % of control

CC1C/C=C2\CSC(NC(=O)/C3=C\N(C/C=C/C=C/C(O)CC(O)CC(=O)N3)C2=O)C(=O)O1 (configuration not stated)
inactive: dose: 10.6 mg/kg/injection, schedule: Q01DX Z (ip), vehicle: saline 100 % of control | dose: 16.0 mg/kg/injection, schedule: Q01DX Z (ip), vehicle: saline 106 % of control | dose: 24.0 mg/kg/injection, schedule: Q01DX Z (ip), vehicle: saline 106 % of control | dose: 36.0 mg/kg/injection, schedule: Q01DX Z (ip), vehicle: saline 103 % of control | dose: 100.0 mg/kg/injection, schedule: Q01DX001 (ip), vehicle: carboxymethylcellulose (CMC) 110 % of control | dose: 200.0 mg/kg/injection, schedule: Q01DX001 (ip), vehicle: carboxymethylcellulose (CMC) 94 % of control | dose: 400.0 mg/kg/injection, schedule: Q01DX001 (ip), vehicle: carboxymethylcellulose (CMC) 97 % of control

COc1cc(CCNC(=O)Cc2ccc(OCc3ccccc3)cc2)ccc1OCc1ccccc1
inactive: dose: 50.0 mg/kg/injection, schedule: Q01DX009 (ip), vehicle: Klucel (hydroxypropylcellulose) (HPC) 91 % of control | [1] 89 % of control | dose: 100.0 mg/kg/injection, schedule: Q04DX003 (ip), vehicle: other 111 % of control | [2] 89 % of control | dose: 200.0 mg/kg/injection, schedule: Q04DX003 (ip), vehicle: other 105 % of control | dose: 400.0 mg/kg/injection, schedule: Q04DX003 (ip), vehicle: other 94 % of control

CCOC(=O)CCc1c(C(=O)O)[nH]c(C(=O)OCC)c1C
inactive: dose: 25.0 mg/kg/injection, schedule: Q04DX003 (ip), vehicle: Klucel (hydroxypropylcellulose) (HPC) 102 % of control | dose: 50.0 mg/kg/injection, schedule: Q04DX003 (ip), vehicle: Klucel (hydroxypropylcellulose) (HPC) 107 % of control | [3] 98 % of control | [4] 102 % of control | [5] 97 % of control | [6] 93 % of control | [7] 97 % of control | [8] 101 % of control

Nc1cc(Cl)c2n[nH]nc2n1
inactive: dose: 75.0 mg/kg/injection, schedule: Q01DX001 (ip), vehicle: other 96 % of control | dose: 150.0 mg/kg/injection, schedule: Q01DX001 (ip), vehicle: other 102 % of control | dose: 300.0 mg/kg/injection, schedule: Q01DX001 (ip), vehicle: other 100 % of control

CCOC(=O)c1ccc(N(CC(O)CN)S(=O)(=O)c2ccc(C)cc2)cc1 (configuration not stated)
inactive: dose: 25.0 mg/kg/injection, schedule: Q01DX009 (ip), vehicle: saline with Tween-80 100 % of control | dose: 50.0 mg/kg/injection, schedule: Q01DX009 (ip), vehicle: saline with Tween-80 95 % of control

CC(=O)Nc1ccc(S(=O)(=O)Oc2ccccc2)cc1
inactive: dose: 100.0 mg/kg/injection, schedule: Q04DX003 (ip), vehicle: alcohol 98 % of control | dose: 200.0 mg/kg/injection, schedule: Q04DX003 (ip), vehicle: alcohol 98 % of control | dose: 400.0 mg/kg/injection, schedule: Q04DX003 (ip), vehicle: alcohol 108 % of control

N#CN(Cc1ccccc1)Cc1ccccc1
inactive: [1] 100 % of control | [4] 101 % of control | [2] 105 % of control | [6] 102 % of control | [9] 109 % of control | [8] 95 % of control

CC(=O)CC(=O)Nc1ccc(Cl)cc1
inactive: [10] 105 % of control | dose: 177.0 mg/kg/injection, schedule: Q04DX002 (ip), vehicle: Klucel (hydroxypropylcellulose) (HPC) 102 % of control | [11] 86 % of control | dose: 266.0 mg/kg/injection, schedule: Q04DX002 (ip), vehicle: Klucel (hydroxypropylcellulose) (HPC) 92 % of control | [12] 95 % of control | dose: 600.0 mg/kg/injection, schedule: Q04DX002 (ip), vehicle: Klucel (hydroxypropylcellulose) (HPC) 92 % of control

C#CCCCCCl
inactive: dose: 100.0 mg/kg/injection, schedule: Q01DX001 (ip), vehicle: other 103 % of control | dose: 200.0 mg/kg/injection, schedule: Q01DX001 (ip), vehicle: other 104 % of control | dose: 400.0 mg/kg/injection, schedule: Q01DX001 (ip), vehicle: other 108 % of control

N=C(N)SCc1ccc(Br)cc1
inactive: [13] 104 % of control | [14] 112 % of control

Cc1ccc(C(=O)C=O)c(C)c1
inactive: [1] 96 % of control | [2] 105 % of control | [9] 109 % of control

Cc1c(C(=O)N(C)C)no[n+]1[O-]
inactive: [15] 102 % of control | [16] 106 % of control | dose: 100.0 mg/kg/injection, schedule: Q04DX002 (ip), vehicle: saline 98 % of control

CCOC(=O)N1C2OC(C(COC(C)=O)=C2COC(C)=O)N1C(=O)OCC
inactive: dose: 12.5 mg/kg/injection, schedule: Q04DX002 (ip), vehicle: saline 99 % of control | [15] 99 % of control | [16] 99 % of control

CCCCC(C#N)C(=O)OCC (configuration not stated)
inactive: [4] 97 % of control | [6] 94 % of control | [8] 87 % of control

Cc1cccc(NC(=O)c2ccccc2C(=O)O)c1C
inactive: [1] 98 % of control | [4] 98 % of control | [2] 93 % of control | [6] 95 % of control | [9] 96 % of control | [8] 93 % of control

COc1cc2ccc3c(c2cc1OC)CN(C)CC3
inactive: dose: 12.5 mg/kg/injection, schedule: Q01DX009 (ip), vehicle: saline 91 % of control | dose: 25.0 mg/kg/injection, schedule: Q01DX009 (ip), vehicle: saline 97 % of control | dose: 50.0 mg/kg/injection, schedule: Q01DX009 (ip), vehicle: saline 100 % of control | dose: 100.0 mg/kg/injection, schedule: Q04DX003 (ip), vehicle: saline 103 % of control

CS(=O)(=O)NOCCCCONS(C)(=O)=O
inactive: dose: 100.0 mg/kg/injection, schedule: Q01DX001 (ip), vehicle: saline with Tween-80 103 % of control | dose: 200.0 mg/kg/injection, schedule: Q01DX001 (ip), vehicle: saline with Tween-80 91 % of control | dose: 400.0 mg/kg/injection, schedule: Q01DX001 (ip), vehicle: saline with Tween-80 92 % of control

COC(=O)C1CC(=O)c2ccc(OC)cc21 (configuration not stated)
inactive: [3] 102 % of control | [5] 92 % of control | [7] 100 % of control

Nc1ccc(-c2ccc(Br)cc2)cc1
inactive: dose: 75.0 mg/kg/injection, schedule: Q01DX001 (ip), vehicle: carboxymethylcellulose (CMC) 101 % of control | dose: 150.0 mg/kg/injection, schedule: Q01DX001 (ip), vehicle: carboxymethylcellulose (CMC) 100 % of control

CCSC1C(OC(C)=O)C(C(CSC(C)=O)OC(C)=O)OC1n1cc(C)c(=O)[nH]c1=O (configuration not stated)
inactive: dose: 100.0 mg/kg/injection, schedule: Q01DX005 (ip), vehicle: saline 94 % of control | dose: 200.0 mg/kg/injection, schedule: Q01DX005 (ip), vehicle: saline 98 % of control

CCOCCOC(=O)CSCC(=O)OCCOCC
inactive: [13] 93 % of control | [14] 104 % of control | dose: 400.0 mg/kg/injection, schedule: Q01DX001 (ip), vehicle: saline 109 % of control

Nc1nccnc1C(=O)NOCc1ccccc1
inactive: dose: 25.0 mg/kg/injection, schedule: Q04DX002 (ip), vehicle: Klucel (hydroxypropylcellulose) (HPC) 90 % of control | dose: 50.0 mg/kg/injection, schedule: Q04DX002 (ip), vehicle: Klucel (hydroxypropylcellulose) (HPC) 90 % of control | [10] 101 % of control and 111 % of control | [11] 105 % of control | [12] 96 % of control and 97 % of control

CCCCOC(=O)c1ccc(NC(=O)NCCC)cc1
inactive: dose: 100.0 mg/kg/injection, schedule: Q01DX009 (ip), vehicle: saline with Tween-80 90 % of control | dose: 200.0 mg/kg/injection, schedule: Q01DX009 (ip), vehicle: saline with Tween-80 88 % of control | dose: 400.0 mg/kg/injection, schedule: Q01DX009 (ip), vehicle: saline with Tween-80 95 % of control
